# Laboratory results reported in PubChem BioAssay (NCI).
#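 1) Cells in 96-well plates. 2) Compound, 48 h, 5 concentrations. 3) Linear interpolation between surrounding doses. 4) Unreached endpoint = highest concentration. TGI denotes the concentration required for complete inhibition of growth.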
# Experiments:
# Assay in all cases: growth of human tumour cells (NCI), 48 h
# 786-0 renal = system: 786-0 renal
# A498 renal = system: A498 renal
# A549 NSCLC = system: A549 NSCLC
# ACHN renal = system: ACHN renal
# CAKI-1 renal = system: CAKI-1 renal
# CCRF-CEM leukemia = system: CCRF-CEM leukemia
# DLD-1 colon = system: DLD-1 colon
# DMS 114 small cell lung = system: DMS 114 small cell lung
# DMS 273 small cell lung = system: DMS 273 small cell lung
# EKVX NSCLC = system: EKVX NSCLC
# HCC-2998 colon = system: HCC-2998 colon
# HCT-116 colon = system: HCT-116 colon
# HCT-15 colon = system: HCT-15 colon
# HL-60(TB) leukemia = system: HL-60(TB) leukemia
# HOP-92 NSCLC = system: HOP-92 NSCLC
# HT29 colon = system: HT29 colon
# IGROV1 ovarian = system: IGROV1 ovarian
# K-562 leukemia = system: K-562 leukemia
# KM20L2 colon = system: KM20L2 colon
# LOX IMVI melanoma = system: LOX IMVI melanoma
# LXFL 529 NSCLC = system: LXFL 529 NSCLC
# M14 melanoma = system: M14 melanoma
# M19-MEL melanoma = system: M19-MEL melanoma
# MALME-3M melanoma = system: MALME-3M melanoma
# MOLT-4 leukemia = system: MOLT-4 leukemia
# NCI-H226 lung = system: NCI-H226 lung
# NCI-H23 lung = system: NCI-H23 lung
# NCI-H460 lung = system: NCI-H460 lung
# NCI-H522 lung = system: NCI-H522 lung
# OVCAR-3 ovarian = system: OVCAR-3 ovarian
# OVCAR-4 ovarian = system: OVCAR-4 ovarian
# OVCAR-5 ovarian = system: OVCAR-5 ovarian
# OVCAR-8 ovarian = system: OVCAR-8 ovarian
# RPMI-8226 leukemia = system: RPMI-8226 leukemia
# RXF 393 renal = system: RXF 393 renal
# SF-268 CNS = system: SF-268 CNS
# SF-295 CNS = system: SF-295 CNS
# SF-539 CNS = system: SF-539 CNS
# SK-MEL-2 melanoma = system: SK-MEL-2 melanoma
# SK-MEL-28 melanoma = system: SK-MEL-28 melanoma
# SK-MEL-5 melanoma = system: SK-MEL-5 melanoma
# SN12C renal = system: SN12C renal
# SNB-19 CNS = system: SNB-19 CNS
# SNB-75 CNS = system: SNB-75 CNS
# SNB-78 CNS = system: SNB-78 CNS
# SR leukemia = system: SR leukemia
# SW-620 colon = system: SW-620 colon
# TK-10 renal = system: TK-10 renal
# U251 CNS = system: U251 CNS
# UACC-257 melanoma = system: UACC-257 melanoma
# UACC-62 melanoma = system: UACC-62 melanoma
# UO-31 renal = system: UO-31 renal
# XF 498 CNS = system: XF 498 CNS
# COLO 205 colon = system: COLO 205 colon
# HOP-18 NSCLC = system: HOP-18 NSCLC
# HOP-62 NSCLC = system: HOP-62 NSCLC
# KM12 colon = system: KM12 colon
# RXF-631 renal = system: RXF-631 renal
# SK-OV-3 ovarian = system: SK-OV-3 ovarian
smiles,measurement,setting,value
Cc1ccc(NC(=O)CC2C(=O)Nc3ccccc3S2=O)cc1C (stereo unspecified),TGI,786-0 renal,68.8 µM
same,TGI,A498 renal,> 100 µM
same,TGI,A549 NSCLC,> 100 µM
same,TGI,ACHN renal,> 100 µM
same,TGI,CAKI-1 renal,> 100 µM
same,TGI,CCRF-CEM leukemia,> 100 µM
same,TGI,DLD-1 colon,> 100 µM
same,TGI,DMS 114 small cell lung,> 100 µM
same,TGI,DMS 273 small cell lung,> 100 µM
same,TGI,EKVX NSCLC,> 100 µM
same,TGI,HCC-2998 colon,> 100 µM
same,TGI,HCT-116 colon,> 100 µM
same,TGI,HCT-15 colon,> 100 µM
same,TGI,HL-60(TB) leukemia,> 100 µM
same,TGI,HOP-92 NSCLC,74.2 µM
same,TGI,HT29 colon,> 100 µM
same,TGI,IGROV1 ovarian,> 100 µM
same,TGI,K-562 leukemia,> 100 µM
same,TGI,KM20L2 colon,> 100 µM
same,TGI,LOX IMVI melanoma,> 100 µM
same,TGI,LXFL 529 NSCLC,> 100 µM
same,TGI,M14 melanoma,> 100 µM
same,TGI,M19-MEL melanoma,> 100 µM
same,TGI,MALME-3M melanoma,> 100 µM
same,TGI,MOLT-4 leukemia,> 100 µM
same,TGI,NCI-H226 lung,> 100 µM
same,TGI,NCI-H23 lung,> 100 µM
same,TGI,NCI-H460 lung,> 100 µM
same,TGI,NCI-H522 lung,> 100 µM
same,TGI,OVCAR-3 ovarian,> 100 µM
same,TGI,OVCAR-4 ovarian,34.3 µM
same,TGI,OVCAR-5 ovarian,> 100 µM
same,TGI,OVCAR-8 ovarian,> 100 µM
same,TGI,RPMI-8226 leukemia,> 100 µM
same,TGI,RXF 393 renal,41.8 µM
same,TGI,SF-268 CNS,> 100 µM
same,TGI,SF-295 CNS,> 100 µM
same,TGI,SF-539 CNS,47.5 µM
same,TGI,SK-MEL-2 melanoma,> 100 µM
same,TGI,SK-MEL-28 melanoma,> 100 µM
same,TGI,SK-MEL-5 melanoma,> 100 µM
same,TGI,SN12C renal,> 100 µM
same,TGI,SNB-19 CNS,> 100 µM
same,TGI,SNB-75 CNS,> 100 µM
same,TGI,SNB-78 CNS,> 100 µM
same,TGI,SR leukemia,> 100 µM
same,TGI,SW-620 colon,> 100 µM
same,TGI,TK-10 renal,> 100 µM
same,TGI,U251 CNS,> 100 µM
same,TGI,UACC-257 melanoma,> 100 µM
same,TGI,UACC-62 melanoma,> 100 µM
same,TGI,UO-31 renal,> 100 µM
same,TGI,XF 498 CNS,> 100 µM
Cc1cccc(-c2nc3c(C(=O)NCCN(C)C)cccc3[nH]2)c1,TGI,786-0 renal,7.88 µM
same,TGI,A498 renal,3.34 µM
same,TGI,A549 NSCLC,7.7 µM
same,TGI,ACHN renal,8.46 µM
same,TGI,CAKI-1 renal,10.3 µM
same,TGI,COLO 205 colon,1.56 µM
same,TGI,DLD-1 colon,7.95 µM
same,TGI,DMS 114 small cell lung,2.51 µM
same,TGI,DMS 273 small cell lung,1.59 µM
same,TGI,EKVX NSCLC,3.5 µM
same,TGI,HCC-2998 colon,1.95 µM
same,TGI,HCT-116 colon,1.55 µM
same,TGI,HCT-15 colon,2.2 µM
same,TGI,HOP-18 NSCLC,4.85 µM
same,TGI,HOP-62 NSCLC,3.46 µM
same,TGI,HOP-92 NSCLC,3.46 µM
same,TGI,HT29 colon,3.48 µM
same,TGI,IGROV1 ovarian,4.06 µM
same,TGI,K-562 leukemia,> 100 µM
same,TGI,KM12 colon,4 µM
same,TGI,LOX IMVI melanoma,2 µM
same,TGI,M14 melanoma,2.98 µM
same,TGI,M19-MEL melanoma,3.03 µM
same,TGI,NCI-H226 lung,3.89 µM
same,TGI,NCI-H23 lung,2.26 µM
same,TGI,NCI-H460 lung,5.99 µM
same,TGI,OVCAR-3 ovarian,6.55 µM
same,TGI,OVCAR-4 ovarian,3.64 µM
same,TGI,OVCAR-5 ovarian,4.14 µM
same,TGI,OVCAR-8 ovarian,7.02 µM
same,TGI,RPMI-8226 leukemia,9.49 µM
same,TGI,RXF 393 renal,2.47 µM
same,TGI,RXF-631 renal,2.16 µM
same,TGI,SF-268 CNS,5.28 µM
same,TGI,SF-295 CNS,3.9 µM
same,TGI,SF-539 CNS,2.04 µM
same,TGI,SK-MEL-2 melanoma,3.26 µM
same,TGI,SK-MEL-28 melanoma,3.46 µM
same,TGI,SK-MEL-5 melanoma,3 µM
same,TGI,SK-OV-3 ovarian,6.07 µM
same,TGI,SN12C renal,3.2 µM
same,TGI,SNB-19 CNS,7.68 µM
same,TGI,SNB-75 CNS,3.73 µM
same,TGI,SNB-78 CNS,14.6 µM
same,TGI,SW-620 colon,1.91 µM
same,TGI,TK-10 renal,4.95 µM
same,TGI,U251 CNS,5.77 µM
same,TGI,UACC-257 melanoma,3.08 µM
same,TGI,UACC-62 melanoma,3.2 µM
same,TGI,UO-31 renal,5.05 µM
CC(C)NCCNC(=O)c1ccccc1Nc1c(Cl)cccc1Cl,TGI,786-0 renal,16 µM
same,TGI,A549 NSCLC,33.9 µM
same,TGI,ACHN renal,31.2 µM
same,TGI,CCRF-CEM leukemia,27.1 µM
same,TGI,COLO 205 colon,24.9 µM
same,TGI,DLD-1 colon,25.7 µM
same,TGI,DMS 114 small cell lung,23.4 µM
same,TGI,DMS 273 small cell lung,26.6 µM
same,TGI,EKVX NSCLC,28.1 µM
same,TGI,HCT-116 colon,23.4 µM
same,TGI,HCT-15 colon,26.5 µM
same,TGI,HL-60(TB) leukemia,24.8 µM
same,TGI,HOP-62 NSCLC,25.4 µM
same,TGI,HT29 colon,17.5 µM
same,TGI,IGROV1 ovarian,30.7 µM
same,TGI,KM12 colon,36 µM
same,TGI,KM20L2 colon,5.78 µM
same,TGI,LOX IMVI melanoma,20.6 µM
same,TGI,LXFL 529 NSCLC,31.5 µM
same,TGI,M14 melanoma,25.1 µM
same,TGI,M19-MEL melanoma,20.8 µM
same,TGI,MOLT-4 leukemia,27.3 µM
same,TGI,NCI-H226 lung,30.1 µM
same,TGI,NCI-H23 lung,32 µM
same,TGI,NCI-H460 lung,11 µM
same,TGI,OVCAR-3 ovarian,26.6 µM
same,TGI,OVCAR-4 ovarian,30.3 µM
same,TGI,OVCAR-5 ovarian,20.4 µM
same,TGI,OVCAR-8 ovarian,34.4 µM
same,TGI,RPMI-8226 leukemia,16.2 µM
same,TGI,RXF 393 renal,17 µM
same,TGI,SF-268 CNS,34.1 µM
same,TGI,SF-295 CNS,28.5 µM
same,TGI,SF-539 CNS,30.2 µM
same,TGI,SK-MEL-28 melanoma,28.1 µM
same,TGI,SK-MEL-5 melanoma,17.3 µM
same,TGI,SK-OV-3 ovarian,28 µM
same,TGI,SN12C renal,26.8 µM
same,TGI,SNB-19 CNS,30 µM
same,TGI,SNB-75 CNS,16.3 µM
same,TGI,SNB-78 CNS,31.5 µM
same,TGI,SR leukemia,26.8 µM
same,TGI,SW-620 colon,30.4 µM
same,TGI,TK-10 renal,24 µM
same,TGI,U251 CNS,16.8 µM
same,TGI,UACC-257 melanoma,22.3 µM
same,TGI,UACC-62 melanoma,30.1 µM
same,TGI,UO-31 renal,21.8 µM
same,TGI,XF 498 CNS,11.4 µM
CC(=O)Nc1ccc(C(=O)N2N=C(C)/C(=C/c3ccccc3O)C2=O)cc1,TGI,786-0 renal,> 100 µM
same,TGI,A549 NSCLC,> 100 µM
same,TGI,ACHN renal,> 100 µM
same,TGI,CAKI-1 renal,> 100 µM
same,TGI,CCRF-CEM leukemia,> 100 µM
same,TGI,COLO 205 colon,> 100 µM
same,TGI,DLD-1 colon,> 100 µM
same,TGI,DMS 114 small cell lung,> 100 µM
same,TGI,DMS 273 small cell lung,> 100 µM
same,TGI,EKVX NSCLC,> 100 µM
same,TGI,HCC-2998 colon,> 100 µM
same,TGI,HCT-116 colon,> 100 µM
same,TGI,HCT-15 colon,> 100 µM
same,TGI,HL-60(TB) leukemia,> 100 µM
same,TGI,HOP-18 NSCLC,> 100 µM
same,TGI,HOP-62 NSCLC,> 100 µM
same,TGI,HT29 colon,> 100 µM
same,TGI,K-562 leukemia,> 100 µM
same,TGI,KM12 colon,> 100 µM
same,TGI,LOX IMVI melanoma,> 100 µM
same,TGI,M14 melanoma,> 100 µM
same,TGI,M19-MEL melanoma,> 100 µM
same,TGI,MALME-3M melanoma,> 100 µM
same,TGI,MOLT-4 leukemia,> 100 µM
same,TGI,NCI-H226 lung,> 100 µM
same,TGI,NCI-H23 lung,> 100 µM
same,TGI,NCI-H460 lung,> 100 µM
same,TGI,NCI-H522 lung,> 100 µM
same,TGI,OVCAR-3 ovarian,> 100 µM
same,TGI,OVCAR-4 ovarian,> 100 µM
same,TGI,OVCAR-5 ovarian,> 100 µM
same,TGI,OVCAR-8 ovarian,> 100 µM
same,TGI,RPMI-8226 leukemia,> 100 µM
same,TGI,SF-268 CNS,> 100 µM
same,TGI,SF-295 CNS,> 100 µM
same,TGI,SF-539 CNS,> 100 µM
same,TGI,SK-MEL-2 melanoma,> 100 µM
same,TGI,SK-MEL-28 melanoma,> 100 µM
same,TGI,SK-MEL-5 melanoma,> 100 µM
same,TGI,SN12C renal,> 100 µM
same,TGI,SNB-19 CNS,> 100 µM
same,TGI,SNB-75 CNS,> 100 µM
same,TGI,SNB-78 CNS,> 100 µM
same,TGI,SR leukemia,> 100 µM
same,TGI,SW-620 colon,> 100 µM
same,TGI,TK-10 renal,> 100 µM
same,TGI,UACC-257 melanoma,> 100 µM
same,TGI,UO-31 renal,> 100 µM
same,TGI,XF 498 CNS,> 100 µM
